# Experimental data as given in patent US11840686B2, “Modulation of prekallikrein (PKK) expression” (Ionis Pharmaceuticals, Inc., priority 2013, dated 2023).
# Strand notation (5' to 3'): a small letter for the sugar, then the base; units joined by * are phosphorothioate-linked, units joined directly phosphodiester-linked; [ ] holds rarer units or linkages, { } end groups; capitals alone tell only the bases. e = 2'-O-(2-methoxyethyl) (MOE); [5mC] = 5-methylcytosine; d = 2'-deoxy (DNA)
# Test system: human PKK mRNA
# Test: Antisense inhibition of human PKK mRNA in HepaRG cells, 5,000 nM (Example 2)
# Assay type: cell-based
# Settings: HepaRG cells, 5,000 nM antisense oligonucleotide, human PKK mRNA; Table 18
# Procedure: Additional antisense oligonucleotides were designed targeting a PKK nucleic acid and were tested for their effects on PKK mRNA in vitro.
# The chimeric antisense oligonucleotides in the tables below were designed as 5-10-5 MOE gapmers, 4-9-4 MOE gapmers, 4-10-4 MOE gapmers, 4-10-3 MOE gapmers, 3-10-4 MOE gapmers, or 3-10-3 MOE gapmers. The 5-10-5 MOE gapmers are 20 nucleosides in length, wherein the central gap segment comprises of ten 2′-deoxynucleosides and is flanked by wing segments on the 5′ direction and the 3′ direction comprising five nucleosides each. The 4-9-4 MOE gapmers are 17 nucleosides in length, wherein the central gap segment comprises of nine 2′-deoxynucleosides and is flanked by wing segments on the 5′ direction and the 3′ direction comprising four nucleosides each. The 4-10-4 MOE gapmers are 18 nucleosides in length, wherein the central gap segment comprises of ten 2′-deoxynucleosides and is flanked by wing segments on the 5′ direction and the 3′ direction comprising four nucleosides each. The 4-10-3 MOE gapmers are 17 nucleosides in length, wherein the central gap segment comprises of ten 2′-deoxynucleosides and is flanked by wing segments on the 5′ direction and the 3′ direction comprising four and three nucleosides respectively. The 3-10-4 MOE gapmers are 17 nucleosides in length, wherein the central gap segment comprises often 2′-deoxynucleosides and is flanked by wing segments on the 5′ direction and the 3′ direction comprising three and four nucleosides respectively. The 3-10-3 MOE gapmers are 16 nucleosides in length, wherein the central gap segment comprises of ten 2′-deoxynucleosides and is flanked by wing segments on the 5′ direction and the 3′ direction comprising three nucleosides each. Each nucleoside in the 5′ wing segment and each nucleoside in the 3′ wing segment has a 2′-O-methoxyethyl modification. The internucleoside linkages throughout each gapmer are phosphorothioate linkages. All cytosine residues throughout each gapmer are 5-methylcytosines. “Start site” indicates the 5′-most nucleoside to which the gapmer is targeted in the human gene sequence. “Stop site” indicates the 3′-most nucleoside to which the gapmer is targeted in the human gene sequence.
# Cultured HepaRG™ cells at a density of 20,000 cells per well were transfected using electroporation with 5,000 nM antisense oligonucleotide. After a treatment period of approximately 24 hours, RNA was isolated from the cells and PKK mRNA levels were measured by quantitative real-time PCR. Human primer probe set RTS3454 was used to measure mRNA levels. PKK mRNA levels were adjusted according to total RNA content, as measured by RIBOGREEN®. The antisense oligonucleotides were tested in a series of experiments that had similar culture conditions. Results are presented as percent inhibition of PKK, relative to untreated control cells.
row,Substance,% inhibition
1,548713 (DNA e[5mC]*eA*e[5mC]*dT*dG*dT*dA*d[5mC]*dT*dA*dG*dT*dT*eT*e[5mC]*e[5mC]; antisense) [compound 548713],33%
2,548724 (DNA eT*e[5mC]*eA*d[5mC]*dT*dG*dT*dA*d[5mC]*dT*dA*dG*dT*eT*eT*e[5mC]*e[5mC]; antisense) [compound 548724],61%

# Same assay, conditions: HepaRG cells, 5,000 nM antisense oligonucleotide; 5-10-5 gapmers; Table 16
row,Substance,% inhibition
1,546926 (eG*e[5mC]*e[5mC]*eA*eT*d[5mC]*d[5mC]*dA*dG*dG*dG*dT*dG*d[5mC]*dT*e[5mC]*eT*e[5mC]*e[5mC]*e[5mC]; antisense) [compound 546926],81%
2,546931 (eG*e[5mC]*e[5mC]*e[5mC]*e[5mC]*d[5mC]*dG*dG*dA*dG*d[5mC]*dA*d[5mC]*d[5mC]*dT*eT*e[5mC]*eA*e[5mC]*eT; antisense) [compound 546931],58%
3,547692 (antisense e[5mC]*eA*e[5mC]*eT*eG*dT*dA*d[5mC]*d[5mC]*dT*dA*dT*dA*dA*d[5mC]*eT*eG*eT*eA*eA) [compound 547692],47%

# Same assay, conditions: HepaRG cells, 5,000 nM antisense oligonucleotide; 5-10-5 gapmers; Table 17
row,Substance,% inhibition
1,547732 (eA*eG*eG*eA*eT*dT*dG*dG*dT*dG*dG*dT*dG*dG*dG*eA*eT*eT*eG*eG; antisense) [compound 547732],0%
2,547740 (eA*eG*eG*eT*eG*dG*dT*dG*dG*dG*dA*dT*dT*dG*dG*eT*eG*eG*eT*eG; antisense) [compound 547740],30%
3,547076 (eT*e[5mC]*eT*e[5mC]*eA*dA*dG*d[5mC]*dA*dG*d[5mC]*d[5mC]*dT*dA*dT*eT*eG*eT*eG*eT; antisense) [compound 547076],14%

# Same assay, conditions: HepaRG cells, electroporation with 5,000 nM antisense oligonucleotide, approximately 24 hours, PKK mRNA by RT-PCR (RTS3454), relative to untreated control cells; Table 6 experiment
row,Substance,% inhibition
1,547314 (antisense eG*e[5mC]*eA*e[5mC]*e[5mC]*dT*dG*dT*dT*d[5mC]*dG*dA*dT*dG*dT*eA*e[5mC]*eT*eT*eT) [compound 547314],73%
2,546209 (antisense eG*e[5mC]*eT*eT*e[5mC]*dA*dG*dT*dG*dA*dG*dA*dA*dT*d[5mC]*e[5mC]*eA*eG*eA*eT) [compound 546209],73%
3,546204 (antisense eA*eA*eT*eA*eG*dG*d[5mC]*dA*dA*dT*dT*dG*dT*dT*d[5mC]*e[5mC]*eG*eG*eT*eA) [compound 546204],91%
4,547326 (antisense eA*eT*eG*eA*e[5mC]*d[5mC]*dA*d[5mC]*dA*dT*dT*dG*d[5mC]*dT*dT*e[5mC]*eA*eA*eG*eG) [compound 547326],48%

# Same assay, conditions: HepaRG cells, electroporation, 5,000 nM antisense oligonucleotide, approx. 24 hours, primer probe set RTS3454, relative to untreated control cells; Table 11
row,Substance,% inhibition
1,546384 (antisense e[5mC]*eG*eT*e[5mC]*e[5mC]*dT*dT*dA*dG*dG*dA*dT*dG*d[5mC]*dA*eA*eA*eG*eA*eA) [compound 546384],81%

# Same assay, conditions: HepaRG cells, electroporation, 5,000 nM antisense oligonucleotide, approx. 24 hours, primer probe set RTS3454, relative to untreated control cells; Table 12
row,Substance,% inhibition
1,546497 (e[5mC]*eA*eT*eG*e[5mC]*dA*dT*dA*d[5mC]*dT*d[5mC]*dG*d[5mC]*d[5mC]*dT*eT*eT*eG*eT*eG; antisense) [compound 546497],56%
2,546493 (e[5mC]*eA*eT*eA*e[5mC]*dT*d[5mC]*dG*d[5mC]*d[5mC]*dT*dT*dT*dG*dT*eG*eA*e[5mC]*eT*e[5mC]; antisense) [compound 546493],35%
3,546495 (eT*eG*e[5mC]*eA*eT*dA*d[5mC]*dT*d[5mC]*dG*d[5mC]*d[5mC]*dT*dT*dT*eG*eT*eG*eA*e[5mC]; antisense) [compound 546495],65%
4,546444 (e[5mC]*e[5mC]*eA*eG*eA*dA*dT*d[5mC]*dA*dT*dG*d[5mC]*d[5mC]*dT*dT*eG*eT*eG*eG*eG; antisense) [compound 546444],61%

# Same assay, conditions: Table 7; HepaRG cells, electroporation with 5,000 nM antisense oligonucleotide, approx. 24 hours; PKK mRNA by RT-PCR (RTS3454), relative to untreated control cells
row,Substance,% inhibition
1,547388 (eT*eA*eT*eG*eG*dT*dG*dT*dT*dT*dT*d[5mC]*dT*dT*dG*eA*eG*eG*eA*eG; antisense) [compound 547388],55%

# Same assay, conditions: Table 9 experiment; HepaRG cells, 20,000 cells per well, electroporation with 5,000 nM antisense oligonucleotide, approx. 24 hours; PKK mRNA by RT-PCR (RTS3454), relative to untreated control cells
row,Substance,% inhibition
1,546351 (antisense eT*eT*eG*e[5mC]*eT*d[5mC]*d[5mC]*d[5mC]*dT*dG*d[5mC]*dG*dG*dG*d[5mC]*eA*e[5mC]*eA*eG*e[5mC]) [compound 546351],82%
2,547469 (antisense eT*eT*eA*e[5mC]*e[5mC]*d[5mC]*dA*dA*d[5mC]*dA*dG*dT*dT*dG*dG*eT*eA*eT*eA*eA) [compound 547469],67%
3,546346 (antisense eA*eG*eG*eG*eA*d[5mC]*d[5mC]*dA*d[5mC]*d[5mC]*dT*dG*dA*dA*dT*e[5mC]*eT*e[5mC]*e[5mC]*e[5mC]) [compound 546346],83%
4,547466 (antisense eG*eT*eA*eT*eA*dA*dA*dT*dT*dG*dT*dG*d[5mC]*dT*dT*eG*eT*eG*eT*e[5mC]) [compound 547466],82%
5,547449 (antisense eT*eT*eT*eT*eA*dT*dT*dT*dG*dT*dG*dA*dG*dA*dA*eA*eG*eG*eT*eG) [compound 547449],71%

# Same assay, conditions: Table 10 experiment; HepaRG cells, 20,000 cells per well, electroporation with 5,000 nM antisense oligonucleotide, approx. 24 hours; PKK mRNA by RT-PCR (RTS3454), relative to untreated control cells
row,Substance,% inhibition
1,546351 (antisense eT*eT*eG*e[5mC]*eT*d[5mC]*d[5mC]*d[5mC]*dT*dG*d[5mC]*dG*dG*dG*d[5mC]*eA*e[5mC]*eA*eG*e[5mC]) [compound 546351],60%
2,547469 (antisense eT*eT*eA*e[5mC]*e[5mC]*d[5mC]*dA*dA*d[5mC]*dA*dG*dT*dT*dG*dG*eT*eA*eT*eA*eA) [compound 547469],50%
3,546346 (antisense eA*eG*eG*eG*eA*d[5mC]*d[5mC]*dA*d[5mC]*d[5mC]*dT*dG*dA*dA*dT*e[5mC]*eT*e[5mC]*e[5mC]*e[5mC]) [compound 546346],70%
4,547466 (antisense eG*eT*eA*eT*eA*dA*dA*dT*dT*dG*dT*dG*d[5mC]*dT*dT*eG*eT*eG*eT*e[5mC]) [compound 547466],43%
5,547449 (antisense eT*eT*eT*eT*eA*dT*dT*dT*dG*dT*dG*dA*dG*dA*dA*eA*eG*eG*eT*eG) [compound 547449],73%

# Same assay, conditions: Table 13; human PKK mRNA in HepaRG cells; 5-10-5 gapmers
row,Substance,% inhibition
1,546839 (e[5mC]*e[5mC]*eT*eA*eT*dA*dA*d[5mC]*dT*d[5mC]*dT*dA*dA*d[5mC]*dA*eG*eT*eA*eT*e[5mC]; antisense) [compound 546839],47%

# Same assay, conditions: human PKK mRNA in HepaRG cells; 5-10-5 gapmers; Table 14
row,Substance,% inhibition
1,547590 (eA*eT*eA*eA*e[5mC]*dT*dA*dT*dA*dA*d[5mC]*dA*dG*dT*dA*eT*e[5mC]*eA*e[5mC]*eT; antisense) [compound 547590],0%
2,546881 (eA*eG*eT*eT*eT*d[5mC]*d[5mC]*dT*dA*dT*dA*dA*d[5mC]*dA*dG*eT*eA*eT*e[5mC]*eA; antisense) [compound 546881],49%
3,547593 (eT*eT*e[5mC]*e[5mC]*eT*dA*dT*dA*dA*d[5mC]*dT*dA*dT*dA*dA*e[5mC]*eA*eG*eT*eA; antisense) [compound 547593],29%
4,547594 (eG*eT*eT*eT*e[5mC]*d[5mC]*dT*dA*dT*dA*dA*d[5mC]*dT*dA*dT*eA*eA*e[5mC]*eA*eG; antisense) [compound 547594],19%
5,546857 (eT*eA*eT*eA*eA*d[5mC]*dT*dA*dT*dA*dA*d[5mC]*dA*dG*dT*eA*eT*e[5mC]*eA*e[5mC]; antisense) [compound 546857],7%

# Same assay, conditions: human PKK mRNA, HepaRG cells, 5,000 nM antisense oligonucleotide, Table 18
row,Substance,% inhibition
1,548780 (antisense eT*eG*eT*e[5mC]*d[5mC]*dT*dA*dT*dA*dA*d[5mC]*dT*dA*eT*eA*eA*e[5mC]) [compound 548780],22%

# Same assay, conditions: human PKK mRNA, HepaRG cells; 5-10-5 motif oligonucleotides targeting SEQ ID NO: 1 and 10
row,Substance,% inhibition
1,547654 (eT*eA*eT*e[5mC]*eA*d[5mC]*dT*dG*dT*dA*d[5mC]*d[5mC]*dT*dA*dT*eA*eA*e[5mC]*eA*eG; antisense) [compound 547654],53%
2,546893 (e[5mC]*eA*e[5mC]*eT*eG*dT*d[5mC]*d[5mC]*dT*dA*dT*dG*dT*d[5mC]*dA*e[5mC]*eT*eG*eT*eA; antisense) [compound 546893],70%
3,547643 (eA*eT*e[5mC]*eA*e[5mC]*dT*dG*dT*d[5mC]*d[5mC]*dT*dA*dT*dA*dA*e[5mC]*eT*eA*eT*eA; antisense) [compound 547643],72%
4,546902 (e[5mC]*eA*e[5mC]*eT*eG*dT*d[5mC]*d[5mC]*dT*dA*dT*dA*dA*d[5mC]*dT*eA*eT*eA*eA*e[5mC]; antisense) [compound 546902],71%
5,547640 (eT*eG*eT*e[5mC]*e[5mC]*dT*dA*dT*dA*dA*d[5mC]*dT*dA*dT*dA*eA*e[5mC]*eA*eG*eT; antisense) [compound 547640],13%
